Data: ChEMBL document CHEMBL1124638, “2,4-Diamino-5-benzylpyrimidines and analogues as antibacterial agents. 10. 2,4-Diamino-5-(6-quinolylmethyl)- and -[(tetrahydro-6-quinolyl)methyl]pyrimidine derivatives. Further specificity studies” (J Med Chem, 1989)
Converted amounts (≈) assume the structure as drawn.

What was measured:
[1] = system: Mycolicibacterium smegmatis; assay: Comparative in vitro antibacterial activity with trimethoprim against Mycobacterium smegmatis S 3254; assay type: functional
Proteus vulgaris = assay: Comparative in vitro antibacterial activity with trimethoprim against Proteus vulgaris CN329; assay type: functional
Citrobacter freundii [2] = assay: Comparative in vitro antibacterial activity with trimethoprim against Citrobacter freundii 2200/77; assay type: functional
Staphylococcus aureus = assay: Comparative in vitro antibacterial activity with trimethoprim against Staphylococcus aureus CN491; assay type: functional
Proteus mirabilis = assay: Comparative in vitro antibacterial activity with trimethoprim against Proteus mirabilis S2409; assay type: functional
Vibrio cholerae = assay: Comparative in vitro antibacterial activity with trimethoprim against Vibrio cholerae ATCC 14035; assay type: functional
Salmonella typhimurium = assay: Comparative in vitro antibacterial activity with trimethoprim against Salmonella Typhimurium S 8587; assay type: functional, Salmonella enterica subsp. enterica serovar Typhimurium; conditions: Salmonella enterica
Klebsiella aerogenes = assay: Comparative in vitro antibacterial activity with trimethoprim against Enterobacter aerogenes 2200/86; assay type: functional
Shigella flexneri = assay: Comparative in vitro antibacterial activity with trimethoprim against Shigella flexneri CN6007; assay type: functional
Klebsiella pneumoniae [3] = assay: Comparative in vitro antibacterial activity with trimethoprim against Klebsiella pneumoniae CN3632; assay type: functional
Enterococcus faecalis = assay: Comparative in vitro antibacterial activity with trimethoprim against Streptococcus faecalis CN478; assay type: functional
Streptococcus agalactiae = assay: Comparative in vitro antibacterial activity with trimethoprim against Streptococcus agalactiae CN1143; assay type: functional
[4] = Comparative in vitro antibacterial activity with trimethoprim against Salmonella typhi CN512; assay type: functional, salmonella typhosa
Dihydrofolate reductase [5] = target: Dihydrofolate reductase (Neisseria gonorrhoeae, UniProt P04174); assay: Inhibitory activity against Dihydrofolate reductase in Neisseria gonorrhoeae; conditions: read-out: I50
Escherichia coli = assay: Comparative in vitro antibacterial activity with trimethoprim against Escherichia coli CN314; assay type: functional
Streptococcus pyogenes = assay: Comparative in vitro antibacterial activity of compound with trimethoprim against Streptococcus pyogenes CN10; assay type: functional
Dihydrofolate reductase [6] = target: T1, Dihydrofolate reductase (Rattus norvegicus, UniProt Q920D2); assay: Inhibitory activity against dihydrofolate reductase in rat liver; conditions: read-out: I50
T1 sequence (Q920D2 whole entry): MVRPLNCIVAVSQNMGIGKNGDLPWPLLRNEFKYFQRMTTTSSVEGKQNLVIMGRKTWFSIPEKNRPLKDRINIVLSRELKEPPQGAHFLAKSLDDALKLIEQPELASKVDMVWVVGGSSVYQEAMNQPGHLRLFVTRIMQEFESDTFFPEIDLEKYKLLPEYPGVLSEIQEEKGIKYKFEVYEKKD

Pasteurella multocida = assay: Comparative in vitro antibacterial activity with trimethoprim against Pasteurella multocida ATCC 6587; assay type: functional
[7] = system: Bordetella bronchiseptica; assay: Comparative in vitro antibacterial activity with trimethoprim against Bordetella bronchiseptica CN385; assay type: functional
Serratia marcescens = assay: Comparative in vitro antibacterial activity with trimethoprim against Serratia marcescens CN2398; assay type: functional
[8] = Dissociation constant at 20 degree C; assay type: physicochemical
Citrobacter freundii [9] = assay: Comparative in vitro antibacterial activity of compound with trimethoprim against Citrobacter freundii 2200/77; assay type: functional
Klebsiella pneumoniae [10] = assay: Comparative in vitro antibacterial activity of compound with trimethoprim against Klebsiella pneumoniae CN3632; assay type: functional

Sequence of Dihydrofolate reductase (Neisseria gonorrhoeae, UniProt P04174) (P04174 whole entry): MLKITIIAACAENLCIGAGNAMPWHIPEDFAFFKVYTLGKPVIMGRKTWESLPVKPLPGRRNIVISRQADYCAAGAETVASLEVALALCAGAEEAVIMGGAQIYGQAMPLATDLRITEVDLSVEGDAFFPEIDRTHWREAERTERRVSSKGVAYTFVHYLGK

Structure (SMILES)	MIC [1] [µg/mL]	MIC (Proteus vulgaris) [µg/mL]	MIC (Citrobacter freundii [2]) [µg/mL]	MIC (Staphylococcus aureus) [µg/mL]	MIC (Proteus mirabilis) [µg/mL]	MIC (Vibrio cholerae) [µg/mL]	MIC (Salmonella typhimurium) [µg/mL]	MIC (Klebsiella aerogenes) [µg/mL]	MIC (Shigella flexneri) [µg/mL]	MIC (Klebsiella pneumoniae [3]) [µg/mL]	MIC (Enterococcus faecalis) [µg/mL]	MIC (Streptococcus agalactiae) [µg/mL]	MIC [4] [µg/mL]	IC50 (Dihydrofolate reductase [5]) [µM]	MIC (Escherichia coli) [µg/mL]	MIC (Streptococcus pyogenes) [µg/mL]	IC50 (Dihydrofolate reductase [6]) [µM]	MIC (Pasteurella multocida) [µg/mL]	MIC [7] [µg/mL]	MIC (Serratia marcescens) [µg/mL]	also measured
COc1cc(Cc2cnc(N)nc2N)cc2c1NCC(CO)C2 (stereo unspecified)	10 (≈ 31.7 µM)	100 (≈ 317 µM)	30 (≈ 95.1 µM)	3 (≈ 9.51 µM)	> 30	3 (≈ 9.51 µM)	10 (≈ 31.7 µM)	30 (≈ 95.1 µM)	30 (≈ 95.1 µM)	10 (≈ 31.7 µM)	3 (≈ 9.51 µM)	10 (≈ 31.7 µM)	10 (≈ 31.7 µM)	0.41	10 (≈ 31.7 µM)	10 (≈ 31.7 µM)	64	30 (≈ 95.1 µM)	30 (≈ 95.1 µM)	> 10	
COc1cc(Cc2cnc(N)nc2N)cc2c1NCCC2	1 (≈ 3.5 µM)	3 (≈ 10.5 µM)	10 (≈ 35 µM)	3 (≈ 10.5 µM)	3 (≈ 10.5 µM)	1 (≈ 3.5 µM)	3 (≈ 10.5 µM)	3 (≈ 10.5 µM)	10 (≈ 35 µM)	3 (≈ 10.5 µM)	3 (≈ 10.5 µM)	3 (≈ 10.5 µM)	3 (≈ 10.5 µM)	0.51	10 (≈ 35 µM)	3 (≈ 10.5 µM)	76	3 (≈ 10.5 µM)	1 (≈ 3.5 µM)	3 (≈ 10.5 µM)	
CCc1cc(Cc2cnc(N)nc2N)cc2c1N(C)CCC2C (stereo unspecified)	3 (≈ 9.63 µM)	10 (≈ 32.1 µM)	3 (≈ 9.63 µM)	0.03 (≈ 0.0963 µM)	3 (≈ 9.63 µM)	3 (≈ 9.63 µM)	1 (≈ 3.21 µM)	1 (≈ 3.21 µM)	10 (≈ 32.1 µM)	3 (≈ 9.63 µM)	0.03 (≈ 0.0963 µM)	1 (≈ 3.21 µM)	10 (≈ 32.1 µM)	0.3	3 (≈ 9.63 µM)	1 (≈ 3.21 µM)	44	3 (≈ 9.63 µM)	1 (≈ 3.21 µM)	3 (≈ 9.63 µM)	
COc1cc(Cc2cnc(N)nc2N)cc2c1NCC(COC(C)=O)C2 (stereo unspecified)	30 (≈ 83.9 µM)	30 (≈ 83.9 µM)	30 (≈ 83.9 µM)	10 (≈ 28 µM)	30 (≈ 83.9 µM)	10 (≈ 28 µM)	30 (≈ 83.9 µM)	30 (≈ 83.9 µM)	30 (≈ 83.9 µM)	100 (≈ 280 µM)	3 (≈ 8.39 µM)	10 (≈ 28 µM)	30 (≈ 83.9 µM)	0.16	30 (≈ 83.9 µM)	3 (≈ 8.39 µM)	61	30 (≈ 83.9 µM)	10 (≈ 28 µM)	> 10	
CCN1CC(CO)Cc2cc(Cc3cnc(N)nc3N)cc(OC)c21 (stereo unspecified)	100 (≈ 291 µM)	> 100	100 (≈ 291 µM)	10 (≈ 29.1 µM)	> 30	100 (≈ 291 µM)	30 (≈ 87.4 µM)	10 (≈ 29.1 µM)	100 (≈ 291 µM)	30 (≈ 87.4 µM)	3 (≈ 8.74 µM)	30 (≈ 87.4 µM)	100 (≈ 291 µM)	2.6	100 (≈ 291 µM)	10 (≈ 29.1 µM)	440	100 (≈ 291 µM)	30 (≈ 87.4 µM)	> 10	
COc1cc(Cc2cnc(N)nc2N)cc2c1N(CCO)CCC2C (stereo unspecified)	3 (≈ 8.74 µM)	10 (≈ 29.1 µM)	3 (≈ 8.74 µM)	1 (≈ 2.91 µM)	10 (≈ 29.1 µM)	3 (≈ 8.74 µM)	10 (≈ 29.1 µM)	30 (≈ 87.4 µM)	10 (≈ 29.1 µM)	10 (≈ 29.1 µM)	0.3 (≈ 0.874 µM)	1 (≈ 2.91 µM)	30 (≈ 87.4 µM)	0.61	30 (≈ 87.4 µM)	3 (≈ 8.74 µM)	142	10 (≈ 29.1 µM)	10 (≈ 29.1 µM)	10 (≈ 29.1 µM)	
COc1cccc2c1N(C)CCC2C (stereo unspecified)																					pKa [8]: 6.51
CC1CCNc2ccc(Cc3cnc(N)nc3N)cc21 (stereo unspecified)	3 (≈ 11.1 µM)	10 (≈ 37.1 µM)	30 (≈ 111 µM)	3 (≈ 11.1 µM)	10 (≈ 37.1 µM)	3 (≈ 11.1 µM)	10 (≈ 37.1 µM)	10 (≈ 37.1 µM)	30 (≈ 111 µM)	30 (≈ 111 µM)	3 (≈ 11.1 µM)	3 (≈ 11.1 µM)	10 (≈ 37.1 µM)	0.4	30 (≈ 111 µM)	1 (≈ 3.71 µM)	22	3 (≈ 11.1 µM)	10 (≈ 37.1 µM)	10 (≈ 37.1 µM)	
CC1CC(C)c2cc(Cc3cnc(N)nc3N)cc(Cl)c2N1 (stereo unspecified)	10 (≈ 31.5 µM)	100 (≈ 315 µM)	100 (≈ 315 µM)	3 (≈ 9.44 µM)	30 (≈ 94.4 µM)	3 (≈ 9.44 µM)	100 (≈ 315 µM)	100 (≈ 315 µM)	300 (≈ 944 µM)	100 (≈ 315 µM)	3 (≈ 9.44 µM)	3 (≈ 9.44 µM)	100 (≈ 315 µM)	0.24	100 (≈ 315 µM)	3 (≈ 9.44 µM)	41	30 (≈ 94.4 µM)	100 (≈ 315 µM)	> 10	
COCCOc1cc(Cc2cnc(N)nc2N)cc2c1NCCC2	3 (≈ 9.11 µM)	100 (≈ 304 µM)		10 (≈ 30.4 µM)	> 30	10 (≈ 30.4 µM)	100 (≈ 304 µM)	100 (≈ 304 µM)	100 (≈ 304 µM)		3 (≈ 9.11 µM)	10 (≈ 30.4 µM)	100 (≈ 304 µM)	0.53	100 (≈ 304 µM)	3 (≈ 9.11 µM)	170	30 (≈ 91.1 µM)	30 (≈ 91.1 µM)	> 10	MIC (Citrobacter freundii [9]): 100 µg/mL (≈ 304 µM); MIC (Klebsiella pneumoniae [10]): 100 µg/mL (≈ 304 µM)
